Test results from US20120164575A1, “CYCLIC COMPOUND, MANUFACTURING METHOD THEREFOR, RADIATION-SENSITIVE COMPOSITION, AND METHOD FOR FORMING A RESIST PATTERN” (MITSUBISHI GAS CHEMICAL COMPANY, INC., priority 2009, published 2012).

Experiment: Solubility of compound in safety solvent
Assay type: physicochemical
Conditions: for solubility in CHN: cyclohexanone (CHN); for solubility in PGME: propylene glycol monomethyl ether (PGME); for solubility in PGMEA: propylene glycol monomethyl ether acetate (PGMEA)
Experimental: The compounds obtained in Synthesis Examples 1 to 6 and Synthesis 1 to 4 were evaluated for the solubility in propylene glycol monomethyl ether acetate (PGMEA), propylene glycol monomethyl ether (PGME) and cyclohexanone (CHN).
A: 4.0 wt %≦dissolved amount
B: 1.0 wt %≦dissolved amount<4.0 wt %
C: dissolved amount<1.0 wt %

CC(C)c1ccc(C2c3cc(c(O)cc3O)C(c3ccc(C(C)C)cc3)c3cc(c(O)cc3O)C(c3ccc(C(C)C)cc3)c3cc(c(O)cc3O)C(c3ccc(C(C)C)cc3)c3cc2c(O)cc3O)cc1 (stereo not drawn) [CR-1A]
solubility in CHN: B (1.0 wt %≦dissolved amount<4.0 wt %)
solubility in PGME: B (1.0 wt %≦dissolved amount<4.0 wt %)
solubility in PGMEA: C (dissolved amount<1.0 wt %)

CC(C)Cc1ccc(C2c3cc(c(O)cc3O)C(c3ccc(CC(C)C)cc3)c3cc(c(O)cc3O)C(c3ccc(CC(C)C)cc3)c3cc(c(O)cc3O)C(c3ccc(CC(C)C)cc3)c3cc2c(O)cc3O)cc1 (stereo not drawn) [CR-2A]
solubility in CHN: B (1.0 wt %≦dissolved amount<4.0 wt %)
solubility in PGME: C (dissolved amount<1.0 wt %)
solubility in PGMEA: C (dissolved amount<1.0 wt %)

Oc1cc(O)c2cc1C(c1ccc(-c3ccccc3)cc1)c1cc(c(O)cc1O)C(c1ccc(-c3ccccc3)cc1)c1cc(c(O)cc1O)C(c1ccc(-c3ccccc3)cc1)c1cc(c(O)cc1O)C2c1ccc(-c2ccccc2)cc1 (stereo not drawn) [CR-3A]
solubility in CHN: B (1.0 wt %≦dissolved amount<4.0 wt %)
solubility in PGME: C (dissolved amount<1.0 wt %)
solubility in PGMEA: C (dissolved amount<1.0 wt %)

Oc1cc(O)c2cc1C(c1ccc(C3CCCCC3)cc1)c1cc(c(O)cc1O)C(c1ccc(C3CCCCC3)cc1)c1cc(c(O)cc1O)C(c1ccc(C3CCCCC3)cc1)c1cc(c(O)cc1O)C2c1ccc(C2CCCCC2)cc1 (stereo not drawn) [CR-4A]
solubility in CHN: B (1.0 wt %≦dissolved amount<4.0 wt %)
solubility in PGME: B (1.0 wt %≦dissolved amount<4.0 wt %)
solubility in PGMEA: C (dissolved amount<1.0 wt %)
